Reference: patent publication US9585892B2, “Solid forms comprising N-(5-tert-butyl-isoxazol-3-yl)-N′-{4-[7-(2-morpholin-4-yl-ethoxy)imidazo[2,1-b][1,3]benzothiazol-2-yl]phenyl}urea, compositions thereof, and uses therewith” (AMBIT BIOSCIENCES CORPORATION, priority 2007, dated 2017)
Entries after “also recorded” stand apart in the source; their conditions may differ. Structures can show the parent of a compound that is named as a salt. Values belong to the molecule of their own block, whether it stands above or below them.

Test: Stress experiments (temperature or relative humidity, XRPD after stress)
Format: physicochemical
Experimental: Stress Experiments. Solids were stressed under different temperature or relative humidity (RH) environments for a measured time period. Specific RH values were achieved by placing the sample inside sealed chambers containing saturated salt solutions. The salt solutions were selected and prepared following an ASTM standard procedure. Samples were analyzed by XRPD immediately after removal from the stress environment.
X-ray powder diffraction analyses were performed on an Inel XRG-3000 diffractometer, equipped with a curved position-sensitive detector with a […] of 120°. Real time data was collected using Cu Kα radiation starting at approximately 4 ° 2θ at a resolution of 0.03 ° 2θ. The tube voltage and amperage were set to 40 kV and 30 mA, respectively. […] Samples were prepared for analysis by packing them into thin-walled glass capillaries. Each capillary was mounted onto a goniometer head that is motorized to permit spinning of the capillary during data acquisition. Instrument calibration was performed daily using a silicon reference standard.

[1] = 75% RH, ambient temperature, 3 days
[2] = 75% RH, ambient temperature, 3 days, listed as Amorphous
[3] = 75% RH, ambient temperature, 5 days

SMILES: CC(C)(C)c1cc(NC(=O)Nc2ccc(-c3cn4c(n3)sc3cc(OCCN5CCOCC5)ccc34)cc2)no1 [Form A of the napsylate salt of Compound B1] [N-(5-tert-butyl-isoxazol-3-yl)-N′-{4-[7-(2-morpholin-4-yl-ethoxy)imidazo[2,1-b][1,3]benzothiazol-2-yl]phenyl}urea]
deliquescence upon storage (75% RH, 7 days): does not deliquesce; also recorded: did not deliquesce

SMILES: CC(C)(C)c1cc(NC(=O)Nc2ccc(-c3cn4c(n3)sc3cc(OCCN5CCOCC5)ccc34)cc2)no1 [Form C of the sulfate salt of Compound B1] [N-(5-tert-butyl-isoxazol-3-yl)-N′-{4-[7-(2-morpholin-4-yl-ethoxy)imidazo[2,1-b][1,3]benzothiazol-2-yl]phenyl}urea]
deliquescence upon storage (75% RH, 7 days): does not deliquesce; also recorded: did not deliquesce

SMILES: CC(C)(C)c1cc(NC(=O)Nc2ccc(-c3cn4c(n3)sc3cc(OCCN5CCOCC5)ccc34)cc2)no1 [Form A of the HBr salt of Compound B1, N-(5-tert-butyl-isoxazol-3-yl)-N′-{4-[7-(2-morpholin-4-yl-ethoxy)imidazo[2,1-b][1,3]benzothiazol-2-yl]phenyl}urea]
deliquescence upon storage (75% RH, 4 days): does not deliquesce; also recorded: did not deliquesce

XRPD Result after stress [1]: remains unchanged
water corresponding to the weight gain [1]: about 4.3 molar equivalents of water
weight gain [1]: about 12.3%
XRPD Result after stress [2]: Amorphous
weight gain [2]: white solid, irregular particles, 11.8%
XRPD Result after stress (Oven: 40° C., 8 days): remains unchanged
XRPD Result after stress (Oven: 40° C., 8 days, listed as Amorphous): Amorphous
SMILES: CC(C)(C)c1cc(NC(=O)Nc2ccc(-c3cn4c(n3)sc3cc(OCCN5CCOCC5)ccc34)cc2)no1 [N-(5-tert-butyl-isoxazol-3-yl)-N′-{4-[7-(2-morpholin-4-yl-ethoxy)imidazo[2,1-b][1,3]benzothiazol-2-yl]phenyl}urea]
deliquescence upon storage [1]: does not deliquesce; also recorded: did not deliquesce

XRPD Result after stress (Oven: 80° C., 3 days): Form D
SMILES: CC(C)(C)c1cc(NC(=O)Nc2ccc(-c3cn4c(n3)sc3cc(OCCN5CCOCC5)ccc34)cc2)no1 [Form D of the HCl salt of Compound B1, N-(5-tert-butyl-isoxazol-3-yl)-N′-{4-[7-(2-morpholin-4-yl-ethoxy)imidazo[2,1-b][1,3]benzothiazol-2-yl]phenyl}urea]

XRPD Result after stress (Oven: 80° C., 3 days, listed as F): Disordered + F
SMILES: CC(C)(C)c1cc(NC(=O)Nc2ccc(-c3cn4c(n3)sc3cc(OCCN5CCOCC5)ccc34)cc2)no1 [Form F of the HCl salt of Compound B1, N-(5-tert-butyl-isoxazol-3-yl)-N′-{4-[7-(2-morpholin-4-yl-ethoxy)imidazo[2,1-b][1,3]benzothiazol-2-yl]phenyl}urea]
XRPD Result after stress (Oven: 80° C., 3 days): substantially disordered, but which retains some Form F content

SMILES: CC(C)(C)c1cc(NC(=O)Nc2ccc(-c3cn4c(n3)sc3cc(OCCN5CCOCC5)ccc34)cc2)no1 [Form B of the esylate salt of Compound B1] [N-(5-tert-butyl-isoxazol-3-yl)-N′-{4-[7-(2-morpholin-4-yl-ethoxy)imidazo[2,1-b][1,3]benzothiazol-2-yl]phenyl}urea]
deliquescence upon storage (75% RH, 7 days): does not deliquesce; also recorded: did not deliquesce

SMILES: CC(C)(C)c1cc(NC(=O)Nc2ccc(-c3cn4c(n3)sc3cc(OCCN5CCOCC5)ccc34)cc2)no1 [Form A of the mesylate salt of Compound B1] [N-(5-tert-butyl-isoxazol-3-yl)-N′-{4-[7-(2-morpholin-4-yl-ethoxy)imidazo[2,1-b][1,3]benzothiazol-2-yl]phenyl}urea]
deliquescence upon storage [3]: does not deliquesce; also recorded: did not deliquesce

SMILES: CC(C)(C)c1cc(NC(=O)Nc2ccc(-c3cn4c(n3)sc3cc(OCCN5CCOCC5)ccc34)cc2)no1 [Form B of the napsylate salt of Compound B1] [N-(5-tert-butyl-isoxazol-3-yl)-N′-{4-[7-(2-morpholin-4-yl-ethoxy)imidazo[2,1-b][1,3]benzothiazol-2-yl]phenyl}urea]
deliquescence upon storage (75% RH, 7 days): does not deliquesce; also recorded: did not deliquesce

SMILES: CC(C)(C)c1cc(NC(=O)Nc2ccc(-c3cn4c(n3)sc3cc(OCCN5CCOCC5)ccc34)cc2)no1 [Form B of the besylate salt of Compound B1] [N-(5-tert-butyl-isoxazol-3-yl)-N′-{4-[7-(2-morpholin-4-yl-ethoxy)imidazo[2,1-b][1,3]benzothiazol-2-yl]phenyl}urea]
deliquescence upon storage (75% RH, 7 days): does not deliquesce; also recorded: did not deliquesce

SMILES: CC(C)(C)c1cc(NC(=O)Nc2ccc(-c3cn4c(n3)sc3cc(OCCN5CCOCC5)ccc34)cc2)no1 [Form A of the edisylate salt of Compound B1] [N-(5-tert-butyl-isoxazol-3-yl)-N′-{4-[7-(2-morpholin-4-yl-ethoxy)imidazo[2,1-b][1,3]benzothiazol-2-yl]phenyl}urea]
deliquescence upon storage (75% RH, 7 days): does not deliquesce; also recorded: did not deliquesce

SMILES: CC(C)(C)c1cc(NC(=O)Nc2ccc(-c3cn4c(n3)sc3cc(OCCN5CCOCC5)ccc34)cc2)no1 [Form B of the mesylate salt of Compound B1] [N-(5-tert-butyl-isoxazol-3-yl)-N′-{4-[7-(2-morpholin-4-yl-ethoxy)imidazo[2,1-b][1,3]benzothiazol-2-yl]phenyl}urea]
deliquescence upon storage (75% RH, 4 days): does not deliquesce; also recorded: did not deliquesce

SMILES: CC(C)(C)c1cc(NC(=O)Nc2ccc(-c3cn4c(n3)sc3cc(OCCN5CCOCC5)ccc34)cc2)no1 [Form B of the tosylate salt of Compound B1] [N-(5-tert-butyl-isoxazol-3-yl)-N′-{4-[7-(2-morpholin-4-yl-ethoxy)imidazo[2,1-b][1,3]benzothiazol-2-yl]phenyl}urea]
deliquescence upon storage [3]: does not deliquesce; also recorded: did not deliquesce
